In brackets after ≈: the same amount, converted by molar mass.
How the values were obtained:
[1] = cited from earlier work
[2] = Solubility of Lumogen F dyes in organic solvents (toluene); type: physicochemical; details: organic solvent or mixture
[3] = Methanol solubility of LR versus non-polar crude oil fractions; type: physicochemical; details: non-polar crude oil fractions showed poor MeOH solubility
Source text: To enhance the detection sensitivity further for LR, the fluorescent non-polar fractions of crude oil coeluted with LR during the chromatography may be removed or partially removed from the resulting effluent mixtures. While the polar components of crude oil can be effectively separated using the gravity column chromatography over silica gel with 100% DCM, the separation of the non-polar crude oil components remains a challenge because of its similar polarity with LR, identified by the Rf value on TLC. Therefore, explored was the second step of purification and isolation of the product by utilizing the solubility difference between LR and the non-polar crude oil components. […] Therefore, in subsequent work, DCM from the resulting effluent was evaporated and then the dark viscous residues were re-dissolved in 1 mL of MeOH followed by sonication for 30 seconds.

| SMILES | solubility in organic solvents [1] | solubility [2] [mg/mL] | also measured |
| --- | --- | --- | --- |
| COc1cc(/C=C/C(=O)CC(=O)/C=C/c2ccc(O)c(OC)c2)ccc1O [curcumin] | soluble |  |  |
| CC(C)c1cccc(C(C)C)c1N1C(=O)c2cc(Oc3ccccc3)c3c4c(Oc5ccccc5)cc5c6c(cc(Oc7ccccc7)c(c7c(Oc8ccccc8)cc(c2c37)C1=O)c64)C(=O)N(c1c(C(C)C)cccc1C(C)C)C5=O [LR, 7,18-bis[2,6-di(propan-2-yl)phenyl]-11,14,22,26-tetraphenoxy-7,18-diazaheptacyclo[14.6.2.2^2,5.0^3,12.0^4,9.0^13,23.0^20,24]hexacosa-1(22),2(26),3,5(25),9,11,13,15,20,23-decaene-6,8,17,19-tetrone] |  | 80 (≈ 74.1 mM) | solubility in methanol (MeOH) [3]: moderately soluble |
| CCCCC(CC)CN1C(=O)c2ccc(OC)c3c(OC)ccc(c23)C1=O (centres unmarked) [LV, 2-(2-ethylhexyl)-6,7-dimethoxybenzo[de]isoquinoline-1,3-dione] |  | 10 (≈ 27.1 mM) |  |
| CC[N+](CC)=c1ccc2nc3c(cc(N)c4ccccc43)oc-2c1 [NB, Nile Blue] | relatively low |  | solubility in water ([1]; water): highly soluble |
| CCN(CC)c1ccc2nc3c4ccccc4c(=O)cc-3oc2c1 [NR, Nile Red] |  |  | solubility in organic solvents such as DCM and toluene ([1]; DCM, toluene): highly soluble |
| CC(C)COC(=O)c1ccc2c3ccc(C#N)c4c(C(=O)OCC(C)C)ccc(c5ccc(C#N)c1c52)c43 [LY, bis(2-methylpropyl) 4,10-dicyanoperylene-3,9-dicarboxylate] |  | < 1 |  |

From patent US12168929B2, “Quantifying zonal flow in multi-lateral wells via taggants of fluids” (Saudi Arabian Oil Company, priority 2023, dated 2024)
